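Grown in 96-well plates, cells were treated for 48 hours with each compound at five concentrations. Insufficient inhibition: endpoint recorded as highest concentration tested. The concentration for full growth arrest is given as TGI.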
Key:
Test in all cases: NCI-60 cell line screen, 48 h
786-0 renal = tested on: 786-0 renal
A498 renal = tested on: A498 renal
A549 NSCLC = tested on: A549 NSCLC
ACHN renal = tested on: ACHN renal
BT-549 breast = tested on: BT-549 breast
CAKI-1 renal = tested on: CAKI-1 renal
CCRF-CEM leukemia = tested on: CCRF-CEM leukemia
COLO 205 colon = tested on: COLO 205 colon
DU-145 prostate = tested on: DU-145 prostate
EKVX NSCLC = tested on: EKVX NSCLC
HCC-2998 colon = tested on: HCC-2998 colon
HCT-116 colon = tested on: HCT-116 colon
HCT-15 colon = tested on: HCT-15 colon
HL-60(TB) leukemia = tested on: HL-60(TB) leukemia
HOP-62 NSCLC = tested on: HOP-62 NSCLC
HOP-92 NSCLC = tested on: HOP-92 NSCLC
HS 578T breast = tested on: HS 578T breast
HT29 colon = tested on: HT29 colon
IGROV1 ovarian = tested on: IGROV1 ovarian
K-562 leukemia = tested on: K-562 leukemia
KM12 colon = tested on: KM12 colon
LOX IMVI melanoma = tested on: LOX IMVI melanoma
M14 melanoma = tested on: M14 melanoma
MALME-3M melanoma = tested on: MALME-3M melanoma
MCF7 breast = tested on: MCF7 breast
MDA-MB-231 breast = tested on: MDA-MB-231 breast
MDA-MB-435 = tested on: MDA-MB-435
MDA-N = tested on: MDA-N
MOLT-4 leukemia = tested on: MOLT-4 leukemia
NCI-H226 lung = tested on: NCI-H226 lung
NCI-H23 lung = tested on: NCI-H23 lung
NCI-H460 lung = tested on: NCI-H460 lung
NCI-H522 lung = tested on: NCI-H522 lung
NCI/ADR-RES ovarian = tested on: NCI/ADR-RES ovarian
OVCAR-3 ovarian = tested on: OVCAR-3 ovarian
OVCAR-4 ovarian = tested on: OVCAR-4 ovarian
OVCAR-5 ovarian = tested on: OVCAR-5 ovarian
OVCAR-8 ovarian = tested on: OVCAR-8 ovarian
PC-3 prostate = tested on: PC-3 prostate
RPMI-8226 leukemia = tested on: RPMI-8226 leukemia
RXF 393 renal = tested on: RXF 393 renal
SF-268 CNS = tested on: SF-268 CNS
SF-295 CNS = tested on: SF-295 CNS
SF-539 CNS = tested on: SF-539 CNS
SK-MEL-2 melanoma = tested on: SK-MEL-2 melanoma
SK-MEL-28 melanoma = tested on: SK-MEL-28 melanoma
SK-MEL-5 melanoma = tested on: SK-MEL-5 melanoma
SK-OV-3 ovarian = tested on: SK-OV-3 ovarian
SN12C renal = tested on: SN12C renal
SNB-19 CNS = tested on: SNB-19 CNS
SNB-75 CNS = tested on: SNB-75 CNS
SW-620 colon = tested on: SW-620 colon
T-47D breast = tested on: T-47D breast
TK-10 renal = tested on: TK-10 renal
U251 CNS = tested on: U251 CNS
UACC-257 melanoma = tested on: UACC-257 melanoma
UACC-62 melanoma = tested on: UACC-62 melanoma
UO-31 renal = tested on: UO-31 renal
SR leukemia = tested on: SR leukemia

O=C(O)CC1OCC=C2CN3CCC45C6=CC(=O)C(=O)C([N+](=O)[O-])=C6NC4C1C2CC35 (centres undefined)
TGI (786-0 renal): > 100 µM
TGI (A498 renal): > 100 µM
TGI (A549 NSCLC): > 100 µM
TGI (ACHN renal): > 100 µM
TGI (BT-549 breast): > 100 µM
TGI (CAKI-1 renal): > 100 µM
TGI (CCRF-CEM leukemia): 61.8 µM
TGI (COLO 205 colon): > 100 µM
TGI (DU-145 prostate): > 100 µM
TGI (EKVX NSCLC): > 100 µM
TGI (HCC-2998 colon): > 100 µM
TGI (HCT-116 colon): > 100 µM
TGI (HCT-15 colon): > 100 µM
TGI (HL-60(TB) leukemia): > 100 µM
TGI (HOP-62 NSCLC): > 100 µM
TGI (HOP-92 NSCLC): > 100 µM
TGI (HS 578T breast): > 100 µM
TGI (HT29 colon): > 100 µM
TGI (IGROV1 ovarian): > 100 µM
TGI (K-562 leukemia): > 100 µM
TGI (KM12 colon): > 100 µM
TGI (LOX IMVI melanoma): > 100 µM
TGI (M14 melanoma): > 100 µM
TGI (MALME-3M melanoma): > 100 µM
TGI (MCF7 breast): > 100 µM
TGI (MDA-MB-231 breast): > 100 µM
TGI (MDA-MB-435): 31.3 µM
TGI (MDA-N): > 100 µM
TGI (MOLT-4 leukemia): > 100 µM
TGI (NCI-H226 lung): > 100 µM
TGI (NCI-H23 lung): > 100 µM
TGI (NCI-H460 lung): > 100 µM
TGI (NCI-H522 lung): > 100 µM
TGI (NCI/ADR-RES ovarian): > 100 µM
TGI (OVCAR-3 ovarian): > 100 µM
TGI (OVCAR-4 ovarian): > 100 µM
TGI (OVCAR-5 ovarian): > 100 µM
TGI (OVCAR-8 ovarian): > 100 µM
TGI (PC-3 prostate): > 100 µM
TGI (RPMI-8226 leukemia): > 100 µM
TGI (RXF 393 renal): > 100 µM
TGI (SF-268 CNS): > 100 µM
TGI (SF-295 CNS): > 100 µM
TGI (SF-539 CNS): > 100 µM
TGI (SK-MEL-2 melanoma): > 100 µM
TGI (SK-MEL-28 melanoma): > 100 µM
TGI (SK-MEL-5 melanoma): > 100 µM
TGI (SK-OV-3 ovarian): > 100 µM
TGI (SN12C renal): > 100 µM
TGI (SNB-19 CNS): > 100 µM
TGI (SNB-75 CNS): > 100 µM
TGI (SW-620 colon): > 100 µM
TGI (T-47D breast): > 100 µM
TGI (TK-10 renal): > 100 µM
TGI (U251 CNS): > 100 µM
TGI (UACC-257 melanoma): > 100 µM
TGI (UACC-62 melanoma): > 100 µM
TGI (UO-31 renal): > 100 µM

CCOC(=O)C1(C/C=C\CBr)CCCCCCCCCCC1=O (centres undefined)
TGI (786-0 renal): > 53 µM
TGI (A498 renal): 29.1 µM
TGI (A549 NSCLC): > 53 µM
TGI (ACHN renal): 32 µM
TGI (BT-549 breast): 31.7 µM
TGI (CAKI-1 renal): 27.2 µM
TGI (COLO 205 colon): 33.7 µM
TGI (DU-145 prostate): 31.9 µM
TGI (EKVX NSCLC): 34.4 µM
TGI (HCC-2998 colon): 30.2 µM
TGI (HCT-116 colon): > 54.2 µM
TGI (HCT-15 colon): 32.8 µM
TGI (HOP-62 NSCLC): 34.7 µM
TGI (HS 578T breast): 43.2 µM
TGI (HT29 colon): 34.3 µM
TGI (IGROV1 ovarian): 11.5 µM
TGI (K-562 leukemia): 20.2 µM
TGI (KM12 colon): 28.8 µM
TGI (LOX IMVI melanoma): 1.66 µM
TGI (M14 melanoma): 55 µM
TGI (MALME-3M melanoma): 19.1 µM
TGI (MCF7 breast): 42.3 µM
TGI (MDA-MB-231 breast): 17.8 µM
TGI (MDA-MB-435): 29.8 µM
TGI (MDA-N): 38.4 µM
TGI (MOLT-4 leukemia): > 27 µM
TGI (NCI-H226 lung): 16.6 µM
TGI (NCI-H23 lung): 26.2 µM
TGI (NCI-H460 lung): 33 µM
TGI (NCI-H522 lung): 1.04 µM
TGI (NCI/ADR-RES ovarian): 39.2 µM
TGI (OVCAR-3 ovarian): 9.75 µM
TGI (OVCAR-4 ovarian): 27.4 µM
TGI (OVCAR-5 ovarian): 35.2 µM
TGI (OVCAR-8 ovarian): 31.4 µM
TGI (PC-3 prostate): 25.1 µM
TGI (RPMI-8226 leukemia): 9.02 µM
TGI (RXF 393 renal): 25.4 µM
TGI (SF-268 CNS): 27.6 µM
TGI (SF-295 CNS): 31.7 µM
TGI (SF-539 CNS): 14.8 µM
TGI (SK-MEL-2 melanoma): 36.5 µM
TGI (SK-MEL-28 melanoma): 30.7 µM
TGI (SK-MEL-5 melanoma): 26.5 µM
TGI (SK-OV-3 ovarian): 31.2 µM
TGI (SN12C renal): 28.4 µM
TGI (SNB-19 CNS): 36.6 µM
TGI (SNB-75 CNS): 26.9 µM
TGI (SW-620 colon): 30.1 µM
TGI (T-47D breast): 29.7 µM
TGI (TK-10 renal): 22.8 µM
TGI (U251 CNS): 26.1 µM
TGI (UACC-257 melanoma): 31.3 µM
TGI (UACC-62 melanoma): 31.9 µM
TGI (UO-31 renal): 15.2 µM

NC(CCC(=O)O)(CCC(=O)O)CCC(=O)O
TGI (786-0 renal): > 100 µM
TGI (A549 NSCLC): > 100 µM
TGI (ACHN renal): > 100 µM
TGI (BT-549 breast): > 100 µM
TGI (CAKI-1 renal): > 100 µM
TGI (CCRF-CEM leukemia): > 100 µM
TGI (COLO 205 colon): > 100 µM
TGI (DU-145 prostate): > 100 µM
TGI (EKVX NSCLC): > 100 µM
TGI (HCT-116 colon): > 100 µM
TGI (HCT-15 colon): > 100 µM
TGI (HOP-92 NSCLC): > 100 µM
TGI (HS 578T breast): > 100 µM
TGI (HT29 colon): > 100 µM
TGI (IGROV1 ovarian): > 100 µM
TGI (K-562 leukemia): > 100 µM
TGI (KM12 colon): > 100 µM
TGI (M14 melanoma): > 100 µM
TGI (MALME-3M melanoma): > 100 µM
TGI (MCF7 breast): > 100 µM
TGI (MDA-MB-231 breast): > 100 µM
TGI (MDA-MB-435): > 100 µM
TGI (MDA-N): > 100 µM
TGI (MOLT-4 leukemia): > 100 µM
TGI (NCI-H226 lung): > 100 µM
TGI (NCI-H23 lung): > 100 µM
TGI (NCI-H460 lung): > 100 µM
TGI (NCI-H522 lung): > 100 µM
TGI (NCI/ADR-RES ovarian): > 100 µM
TGI (OVCAR-5 ovarian): > 100 µM
TGI (OVCAR-8 ovarian): > 100 µM
TGI (PC-3 prostate): > 100 µM
TGI (RPMI-8226 leukemia): > 100 µM
TGI (RXF 393 renal): > 100 µM
TGI (SF-268 CNS): > 100 µM
TGI (SF-295 CNS): > 100 µM
TGI (SF-539 CNS): > 100 µM
TGI (SK-MEL-2 melanoma): > 100 µM
TGI (SK-MEL-5 melanoma): > 100 µM
TGI (SK-OV-3 ovarian): > 100 µM
TGI (SN12C renal): > 100 µM
TGI (SNB-19 CNS): > 100 µM
TGI (SNB-75 CNS): > 100 µM
TGI (SR leukemia): > 100 µM
TGI (SW-620 colon): > 100 µM
TGI (T-47D breast): > 100 µM
TGI (TK-10 renal): > 100 µM
TGI (U251 CNS): > 100 µM
TGI (UACC-257 melanoma): > 100 µM
TGI (UACC-62 melanoma): > 100 µM
TGI (UO-31 renal): > 100 µM
